Source: US4621090A, “Antifungal compositions” (Toyo Soda Manufacturing Co., Ltd., priority 1983, dated 1986)
Values after ≈ are worked out from the molar mass of the structure shown. Read-outs that look alike come from different tables or passages of the source.

Legend:
Assay type in all cases: cell-based
[1] = tested on: Trichophyton mentagraphytes MTU-19024; assay: Minimum inhibitory concentration, anti-Trichophyton mentagraphytes activity test, strain MTU-19024; settings: 27° C., a week; for MIC: Trichophyton, MTU19024, Sabouraud's dextrose agar
Experimental: (§1) The activity was tested by the 10 time-step dilution test, using the Sabouraud's dextrose agar culture medium (2% dextrose, 1% pepton and 1.5% agar; pH 6.5±). A platinum loopful (about 10 μl) spore suspension (prepared from a reserved strain of Trichlophyton mentagraphytes and containing 1×10^6 cells/ml) was applied in the form of drawn lines on a plate of a culture medium containing the active ingredients. The culture medium plate was kept at 27° C. for a week and then visually observed to see if any colonies had formed. The minimum inhibitory concentration was defined as the minimum concentration with which formation of distinct colonies on the culture medium plate was not observed.

[2] = tested on: Trichophyton mentagraphytes MTU-19031; assay: Minimum inhibitory concentration, anti-Trichophyton mentagraphytes activity test, strain MTU-19031; settings: 27° C., a week; for MIC: Trichophyton, MTU19031, Sabouraud's dextrose agar
Experimental: as §1

[3] = tested on: Microsporum canis MTU-20010; assay: Growth inhibition test; settings: read-out: Minimum inhibitory concentration
[4] = tested on: Trichophyton violaceum MTU-19021; assay: Growth inhibition test; settings: read-out: Minimum inhibitory concentration
[5] = tested on: Microsporum gypseum MTU-20005; assay: Growth inhibition test; settings: Nannizzia gypsea, read-out: Minimum inhibitory concentration
[6] = tested on: Epidermophyton floccosum MTU-21007; assay: Growth inhibition test; settings: MTU21007, 336 h, after 14 days cultivation at 27° C., read-out: Minimum inhibitory concentration
[7] = MTU20010, 168 h, after 7 days cultivation at 27° C.
[8] = MTU20010, 336 h, after 14 days cultivation at 27° C.
[9] = MTU19021, 168 h, after 7 days cultivation at 27° C.
[10] = MTU19021, 336 h, after 14 days cultivation at 27° C.
[11] = MTU20005, 168 h, after 7 days cultivation at 27° C.
[12] = MTU20005, 336 h, after 14 days cultivation at 27° C.

Molecule	MIC [1] [µg/mL]	MIC [2] [µg/mL]	further results
Cc1cc(C)nc(N(C)C(=S)Oc2ccc3ccccc3c2)c1 [compound 14, O--2-Naphthyl N--methyl-N--(4,6,-dimethyl-2-pyridyl)thiocarbamate]	0.5 (≈ 1.55 µM)	0.5 (≈ 1.55 µM)	–
COc1cccc(N(C)C(=S)Oc2ccc3c(c2)C2CCC3C2)n1 (stereo not shown) [compound 12, O--1,4-Methano-1,2,3,4-tetrahydro-6-naphthyl N--(6-methoxy-2-pyridyl)-N--methylthiocarbamate]	0.5 (≈ 1.47 µM)	0.5 (≈ 1.47 µM)	–
COc1cccc(N(C)C(=S)Oc2ccc3c(c2)C2CCC3CC2)n1 [compound 21, O--1,4-Ethano-1,2,3,4-tetrahydro-6-naphthyl N--(6-methoxy-2-pyridyl)-N--methylthiocarbamate]	0.5 (≈ 1.41 µM)	0.5 (≈ 1.41 µM)	–
COc1cccc(N(C)C(=S)Oc2ccc(SC)cc2)n1 [compound 62, O--4-Methylthiophenyl N--(6-methoxy-2-pyridyl)-N--methylthiocarbamate]	0.5 (≈ 1.56 µM)	0.05 (≈ 0.156 µM)	–
CCc1ccc(OC(=S)N(C)c2cccc(OC)n2)cc1C [compound 39, O--4-Ethyl-3-methylphenyl N--(6-methoxy-2-pyridyl)-N--methylthiocarbamate]	0.5 (≈ 1.58 µM)	0.5 (≈ 1.58 µM)	–
CCCc1ccc(OC(=S)N(C)c2cccc(OC)n2)cc1 [compound 65, O--4-Propylphenyl N--(6-methoxy-2-pyridyl)-N--methylthiocarbamate]	0.5 (≈ 1.58 µM)	0.5 (≈ 1.58 µM)	–
O--Methyl-4-nitrophenyl N--(6-methoxy-2-pyridyl)-N--methylthiocarbamate [compound 66]	–	–	Minimum inhibitory concentration ([1]; Sabouraud's dextrose agar): 0.5 µg/mL; Minimum inhibitory concentration ([2]; Sabouraud's dextrose agar): 0.5 µg/mL
COc1cccc(N(C)C(=S)Oc2ccc(Cl)c(Cl)c2)n1 [compound 50, O--3,4-Dichlorophenyl N--(6-methoxy-2-pyridyl)-N--methylthiocarbamate]	0.5 (≈ 1.46 µM)	0.5 (≈ 1.46 µM)	–
COc1cccc(N(C)C(=S)Oc2ccc(C)cc2)n1 [compound 53, O--4-Methylphenyl N--(6-methoxy-2-pyridyl)-N--methylthiocarbamate]	0.5 (≈ 1.73 µM)	0.5 (≈ 1.73 µM)	–
Cc1ccc(N(C)C(=S)Oc2ccc3c(c2)CCCC3)nc1C [compound 27, O--5,6,7,8-Tetrahydro-2-naphthyl N--methyl-N--(5,6-dimethyl-2-pyridyl)-thiocarbamate]	0.5 (≈ 1.53 µM)	0.5 (≈ 1.53 µM)	–
COc1cccc(N(C)C(=S)Oc2ccc(Br)cc2)n1 [compound 34, O--4-Bromophenyl N--(6-methoxy-2-pyridyl)-N--methylthiocarbamate]	0.5 (≈ 1.42 µM)	0.05 (≈ 0.142 µM)	–
COc1cccc(N(C)C(=S)Oc2ccc(Br)c(C)c2)n1 [compound 46, O--4-Bromo-3-methylphenyl N--(6-methoxy-2-pyridyl)-N--methylthiocarbamate]	0.5 (≈ 1.36 µM)	0.5 (≈ 1.36 µM)	–
COc1cccc(N(C)C(=S)Oc2ccc(C(F)(F)F)cc2)n1 [compound 43, O-- 4-Trifluoromethylphenyl N--(6-methoxy-2-pyridyl)-N--methylthiocarbamate]	0.5 (≈ 1.46 µM)	0.05 (≈ 0.146 µM)	–
CNc1cccc(N(C)C(=S)Oc2ccc(C(C)(C)C)cc2)n1 [compound 58, O--4-t-Butylphenyl N--methyl-N--(6-methylamino-2-pyridyl)thiocarbamate]	0.5 (≈ 1.52 µM)	0.5 (≈ 1.52 µM)	–
CN(C)c1cccc(N(C)C(=S)Oc2ccc3ccccc3c2)n1 [compound 35, O--2-Naphthyl N--methyl-N--(6-dimethylamino-2-pyridyl)-thiocarbamate]	0.5 (≈ 1.48 µM)	0.5 (≈ 1.48 µM)	–
COc1cccc(N(C)C(=S)Oc2ccc(C(C)(C)C)cc2)n1 [compound 16, O--4-t-Butylphenyl N--(6-methoxy-2-pyridyl)-N--methylthiocarbamate]	0.5 (≈ 1.51 µM)	0.5 (≈ 1.51 µM)	–
CN(C)c1cccc(N(C)C(=S)Oc2ccc(C(F)(F)F)cc2)n1 [compound 68, O--4-Trifluoromethylphenyl N--(6-dimethylamino-2-pyridyl)-N--methylthiocarbamate]	0.5 (≈ 1.41 µM)	0.5 (≈ 1.41 µM)	–

Molecule	MIC [1] [µg/mL]	MIC [2] [µg/mL]	further results
Cc1cccc(N(C)C(=S)Oc2ccc3ccccc3c2)n1 [Compound No. 2, O-2-Naphthyl N-methyl-N-(6-methyl-2-pyridyl)thiocarbamate]	0.5 (≈ 1.62 µM)	0.5 (≈ 1.62 µM)	–
COc1cccc(N(C)C(=S)Oc2ccc(C(C)C)c(C)c2)n1 [compound 41, O--4-Isopropyl-3-methylphenyl N--(6-methoxy-2-pyridyl)-N--methylthiocarbamate]	0.5 (≈ 1.51 µM)	0.5 (≈ 1.51 µM)	–
COc1cccc(N(C)C(=S)Oc2ccc(SC)c(C)c2)n1 [compound 67, O--3-Methyl-4-methylthiophenyl N--(6-methoxy-2-pyridyl)-N--methylthiocarbamate]	0.5 (≈ 1.49 µM)	0.5 (≈ 1.49 µM)	–
COc1cccc(N(C)C(=S)Oc2ccc(C(C)C)cc2)n1 [compound 30, O--4-Isopropylphenyl N--(6-methoxy-2-pyridyl)-N--methylthiocarbamate]	0.5 (≈ 1.58 µM)	0.5 (≈ 1.58 µM)	–
Cc1cc(C)nc(N(C)C(=S)Oc2ccc3c(c2)CCC3)c1 [compound 15, O--5-Indanyl N--methyl-N--(4,6-dimethyl-2-pyridyl)thiocarbamate]	0.5 (≈ 1.6 µM)	0.5 (≈ 1.6 µM)	–
CCc1ccc(OC(=S)N(C)c2cccc(OC)n2)cc1 [compound 33, O--4-Ethylphenyl N--(6-methoxy-2-pyridyl)-N--methylthiocarbamate]	0.5 (≈ 1.65 µM)	0.05 (≈ 0.165 µM)	–
CN(C)c1cccc(N(C)C(=S)Oc2ccc(C(C)(C)C)cc2)n1 [compound 36, O--4-t-Butylphenyl N--methyl-N--(6-dimethylamino-:2-pyridyl)-thiocarbamate]	0.5 (≈ 1.46 µM)	0.5 (≈ 1.46 µM)	–
COc1cccc(N(C)C(=O)Oc2ccc3c(c2)C2CCC3C2)n1 (stereo not shown) [compound 13, 1,4-Methano-1,2,3,4-tetrahydro-6-naphthyl N--(6-methoxy-2-pyridyl)-N--methylcarbamate]	0.5 (≈ 1.54 µM)	0.5 (≈ 1.54 µM)	–
COc1cccc(N(C)C(=S)Oc2ccc(Cl)c(C)c2)n1 [compound 38, O--4-Chloro-3-methylphenyl N--(6-methoxy-2-pyridyl)-N--methylthiocarbamate]	0.5 (≈ 1.55 µM)	0.05 (≈ 0.155 µM)	–
C=C(C)c1ccc(OC(=S)N(C)c2cccc(OC)n2)cc1 [compound 56, O--4-Isopropenylphenyl N--(6-methoxy-2-pyridyl)-N--methylthiocarbamate]	0.5 (≈ 1.59 µM)	0.5 (≈ 1.59 µM)	–
COc1cccc(N(C)C(=S)Oc2cccc(C(C)(C)C)c2)n1 [compound 28, O--3-t-Butylphenyl N--(6-methoxy-2-pyridyl)-N--methylthiocarbamate]	0.5 (≈ 1.51 µM)	0.5 (≈ 1.51 µM)	MIC [3, 7]: 0.5 µg/mL (≈ 1.51 µM); MIC [3, 8]: 0.5 µg/mL (≈ 1.51 µM); MIC [4, 9]: 0.5 µg/mL (≈ 1.51 µM); MIC [4, 10]: 0.5 µg/mL (≈ 1.51 µM); MIC [5, 11]: 0.5 µg/mL (≈ 1.51 µM); MIC [5, 12]: 0.5 µg/mL (≈ 1.51 µM); MIC [6]: 0.5 µg/mL (≈ 1.51 µM)
Cc1cccc(N(C)C(=S)Oc2ccc3c(c2)CCCC3)n1 [compound 8, O--5,6,7,8-Tetrahydro-2-naphthyl N--methyl-N--(6-methyl-2-pyridyl)thiocarbamate]	0.5 (≈ 1.6 µM)	0.5 (≈ 1.6 µM)	–
Cc1ccc(N(C)C(=S)Oc2ccc3ccccc3c2)nc1C [compound 25, O--2-Naphthyl N--methyl-N--(5,6-dimethyl-2-pyridyl)thiocarbamate]	0.5 (≈ 1.55 µM)	0.5 (≈ 1.55 µM)	–
COc1cccc(N(C)C(=S)Oc2cccc(C(C)C)c2)n1 [compound 48, O--3-Isopropylphenyl N--(6-methoxy-2-pyridyl)-N--methylthiocarbamate]	0.5 (≈ 1.58 µM)	0.5 (≈ 1.58 µM)	MIC [3, 7]: 0.5 µg/mL (≈ 1.58 µM); MIC [3, 8]: 0.5 µg/mL (≈ 1.58 µM); MIC [4, 9]: 0.5 µg/mL (≈ 1.58 µM); MIC [4, 10]: 0.5 µg/mL (≈ 1.58 µM); MIC [5, 11]: 0.5 µg/mL (≈ 1.58 µM); MIC [5, 12]: 0.5 µg/mL (≈ 1.58 µM); MIC [6]: 0.5 µg/mL (≈ 1.58 µM)
CCC(C)(C)c1ccc(OC(=S)N(C)c2cccc(OC)n2)cc1 [compound 19, O--4-t-Pentylphenyl N--(6-methoxy-2-pyridyl)-N--methylthiocarbamate]	0.5 (≈ 1.45 µM)	0.5 (≈ 1.45 µM)	–
Cc1ccc(N(C)C(=S)Oc2ccc3c(c2)CCC3)nc1C [compound 26, O--5-Indanyl N--methyl-N--(5,6-dimethyl-2-pyridyl)thiocarbamate]	0.5 (≈ 1.6 µM)	0.5 (≈ 1.6 µM)	–
COc1cccc(N(C)C(=S)Oc2ccc(C)c(C)c2)n1 [compound 22, O--3,4-Dimethylphenyl N--(6-methoxy-2-pyridyl)-N--methylthiocarbamate]	0.5 (≈ 1.65 µM)	0.5 (≈ 1.65 µM)	–
